# Laboratory results from patent US9512091B2, “Compositions and methods for the modulation of specific amidases for N-acylethanolamines for use in the therapy of inflammatory diseases” (Epitech Group S.r.l., priority 2012, dated 2016).
# Legend:
# [1] = Solubility of the prepared product; assay type: physicochemical; settings: for solubility / Solubility in ethanol: ethanol; for solubility: organic solvent or mixture
# [2] = target: T1, NAAA (N-Acylethanolamine Hydrolizing Acid Amidase) (Homo sapiens, UniProt Q02083); assay: Activity on the NAAA enzyme, membranes of HEK-NAAA cells, [14C]PEA hydrolysis; assay type: biochemical; settings: HEK-NAAA membranes 50 μg/sample, [14C]PEA 20 μM, 30 min at 37° C.; mean of 10 experiments; read-out: Inhibition of NAAA IC50 (after 30 min incubation)
# T1 construct: expressed in transfected cells; host or cells: HEK cells permanently transfected with NAAA (HEK-NAAA); 12000 g membrane fraction
# T1 sequence (Q02083 29-359): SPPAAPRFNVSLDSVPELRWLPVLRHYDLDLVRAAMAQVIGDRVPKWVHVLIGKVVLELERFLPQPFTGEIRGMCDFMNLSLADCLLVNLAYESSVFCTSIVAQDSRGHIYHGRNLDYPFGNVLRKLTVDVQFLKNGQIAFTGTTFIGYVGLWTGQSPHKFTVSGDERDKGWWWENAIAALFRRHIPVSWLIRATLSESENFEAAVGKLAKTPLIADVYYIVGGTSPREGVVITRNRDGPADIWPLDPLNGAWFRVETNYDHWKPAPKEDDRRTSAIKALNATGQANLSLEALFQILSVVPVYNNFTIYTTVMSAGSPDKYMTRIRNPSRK
# Protocol: The effect of the samples being analysed on the enzymatic activity of the NAAA (N-Acylethanolamine Hydrolizing Acid Amidase) was determined on suitably permanently transfected cellular lines (HEK-NAAA). The cells were homogenised using TRIS-HCl 20 Mm (pH 7.4) by means of dounce. Subsequently a mild centrifugation (10 min, 800 g, 4° C.) was carried out for removing the cellular debris. The cellular fraction containing the membranes was obtained by means of subsequent centrifugation (30 min, 12000 g, 4° C.). The membranes (50 μg/sample) were incubated for 30 min at 37° C. with [^14C]PEA (20 μM; 10000 cpm/sample; 5 nCi/nmols) in presence and in absence of the substances to be tested. The incubation was blocked by adding 2 volumes of CHCl3/CH3OH (1:1/v:v). The radioactivity associated to the aqueous phase containing [^14C]Ethanolamine (produced by the hydrolysis of the radioactive substrate) was determined by means of β-Counter (Beckman Counter, LS6500 Scintillation Counters, Milan).
# [3] = test system: edema of the legs induced by sub-plantar carrageenan; assay: Carrageenan edema of the legs, plantar volume by plethysmometer; assay type: in vivo, rat; settings: for increase of plantar volume in percentage with respect to carrageenan alone (carrageenan=100): rat, PEA 33 μM/Kg, PEA-OXA (30 mg/Kg) μM/Kg, 5 experiments
# Protocol: The experimental model of edema of the legs is induced through sub-plantar injection of a carrageenan solution (containing 50 μl of sterile saline solution and 1% of carrageenan) in the right leg of the animal (rat).
# At specific time intervals the plantar volume is measured by means of a plethysmometer (Ugo Basile, Milan, Italy). The increase of the plantar volume is evaluated as the difference between the value obtained in the specific time intervals and the volume at the basal (time 0) measured immediately before the administration of carrageenan.
# The data obtained from 5 different experiments, each involving 10 animals per group, were tabled (tab 2) in percentage with respect to the animals treated with carrageenan alone (carrageenan=100): […]
# [4] = test system: hepatic esterases; settings: prior-art statement on poor selectivity; cited from earlier work
smiles,measurement,setting,value
"CCCCCCCCCCCCCCCC1=NCCS1 [Example 16, 2-pentadecyl-2-thiazoline]",solubility,[1],> 10000 µg/mL
same,Solubility in water,[1],poorly soluble
"CCCCCCCCCCCCCCCCCC(=O)NCCO [SEA, Stearylethanolamide, reference compound]",IC50,[2],> 50 µM
"CCCCCCCCCCCCCC1=NCCO1 [MEA-OXA, 2-tridecyl-2-oxazoline]",IC50,[2],41.5 ± 0.032 µM
same,solubility,[1],> 10000 µg/mL
same,Solubility in water,[1],poorly soluble
"CCCCCCCCCCCCCCC1=NCCO1 [Example 7, 2-tetradecyl-2-oxazoline]",melting point,,41 to 44 °C
same,solubility,[1],> 10000 µg/mL
same,Solubility in water,[1],poorly soluble
"CCCCCCCCCCCCCCCC(=O)NCCO [PEA, Palmitoylethanolamide, reference compound]",IC50,[2],> 50 µM
same,increase of plantar volume in percentage with respect to carrageenan alone (carrageenan=100),[3]; 30 min,89.2 ± 2.2%
same,increase of plantar volume in percentage with respect to carrageenan alone (carrageenan=100),[3]; 1 hr,82 ± 1.8%
same,increase of plantar volume in percentage with respect to carrageenan alone (carrageenan=100),[3]; 2 hrs,78.3 ± 1.6%
same,increase of plantar volume in percentage with respect to carrageenan alone (carrageenan=100),[3]; 3 hrs,73.9 ± 2.1%
same,increase of plantar volume in percentage with respect to carrageenan alone (carrageenan=100),[3]; 4 hrs,70.1 ± 1.9%
same,increase of plantar volume in percentage with respect to carrageenan alone (carrageenan=100),[3]; 5 hrs,54.5 ± 0.63%
same,increase of plantar volume in percentage with respect to carrageenan alone (carrageenan=100),[3]; 6 hrs,32.9 ± 0.41%
"CCCCCCCCCCCCCCCC1=N[C@@H](C)CO1 [Example 12, 2-pentadecyl-4(S)-methyl-2-oxazoline]",solubility,[1],> 10000 µg/mL
same,Solubility in water,[1],poorly soluble
"CCCCCCCCCCCCCCCC1=NC(C(=O)O)CO1 (centres unmarked) [Example 14b, 2-pentadecyl-4-carboxy-2-oxazoline]",solubility,[1],> 10000 µg/mL
same,Solubility in water,[1],poorly soluble
"CCCCCCCCCCCCCCCC1=NCCCO1 [Example 15, 2-pentadecyl-2-oxazine]",Solubility in ethanol,[1],> 10 mg/mL
same,Solubility in water,[1],poorly soluble
"CCCCCCCCCCCCCCCC1=NC(CO)(CO)CO1 [Example 6, 2-pentadecyl-4,4-bis(hydroxymethyl)-2-oxazoline]",solubility,[1],> 10000 µg/mL
same,Solubility in water,[1],poorly soluble
"NC(=O)c1cccc(-c2cccc(OC(=O)NC3CCCCC3)c2)c1 [URB597, cyclohexyl carbamic acid 3′-carbamoyl-biphenyl-3-yl ester]",inhibition of hepatic esterases,[4],more than 40%
"CCCCCCCCCCCCCCCC1=N[C@H](C)CO1 [Example 11, 2-pentadecyl-4(R)-methyl-2-oxazoline]",solubility,[1],> 10000 µg/mL
same,Solubility in water,[1],poorly soluble
"CCCCCCCCCCCCCCCCCC1=NCCO1 [SEA-OXA, 2-heptadecyl-2-oxazoline]",IC50,[2],35 ± 0.021 µM
same,melting point,,51 to 53 °C
same,solubility,[1],> 10000 µg/mL
same,Solubility in water,[1],poorly soluble
"O=C(CCc1ccccc1)N[C@H]1COC1=O [(S)-N-(2-oxo-3-oxetanyl)-3-phenylpropionamide, reference compound]",IC50,[2],0.42 µM
"CCCCCCCCCCCCCCCC1=NC[C@H](C)O1 [Example 10, 2-pentadecyl-5(S)-methyl-2-oxazoline]",solubility,[1],> 10000 µg/mL
same,Solubility in water,[1],poorly soluble
"CCCCCCCCC=CCCCCCCCC1=NCCO1 [OEA-OXA, 2-(8-heptadecenyl)-2-oxazoline]",IC50,[2],38.4 ± 0.034 µM
same,solubility,[1],> 10000 µg/mL
same,Solubility in water,[1],poorly soluble
"CCCCCCCCCCCCCCCC1=NCCO1 [PEA-OXA, 2-pentadecyl-2-oxazoline]",IC50,[2],24.2 ± 0.018 µM
same,increase of plantar volume in percentage with respect to carrageenan alone (carrageenan=100),[3]; 30 min,88.2 ± 2.0%
same,increase of plantar volume in percentage with respect to carrageenan alone (carrageenan=100),[3]; 1 hr,81.2 ± 2.1%
same,increase of plantar volume in percentage with respect to carrageenan alone (carrageenan=100),[3]; 2 hrs,66.6 ± 0.78%
same,increase of plantar volume in percentage with respect to carrageenan alone (carrageenan=100),[3]; 3 hrs,59.6 ± 0.62%
same,increase of plantar volume in percentage with respect to carrageenan alone (carrageenan=100),[3]; 4 hrs,51.4 ± 0.58%
same,increase of plantar volume in percentage with respect to carrageenan alone (carrageenan=100),[3]; 5 hrs,43.0 ± 0.42%
same,increase of plantar volume in percentage with respect to carrageenan alone (carrageenan=100),[3]; 6 hrs,31.2 ± 0.22%
same,anti-inflammatory activity with respect to PEA,"[3]; rat carrageenan edema, especially between 2 and 5 hours from carrageenan",greater anti-inflammatory activity
same,solubility,[1],> 10000 µg/mL
same,Solubility in water,[1],poorly soluble
"CCCCCCCCCCCCCCCCC1=NCCO1 [Example 8, 2-hexadecyl-2-oxazoline]",melting point,,49 to 51 °C
same,solubility,[1],> 10000 µg/mL
same,Solubility in water,[1],poorly soluble
CCCCCCCCCCCCCCCC1=NCCO1 [PEA-OXLE],IC50,[2],32.1 ± 0.031 µM
same,Solubility in ethanol,[1],> 10 mg/mL
same,Solubility in water,[1],poorly soluble
"CCCCCCCCCCCCCC(=O)NCCO [MEA, Myristoyl ethanolamide, reference compound]",IC50,[2],> 50 µM
"CCCCCCCCCCCCCCCC1=NC(CO)CO1 (centres unmarked) [Example 13, 2-pentadecyl-4-hydroxymethyl-2-oxazoline]",solubility,[1],> 10000 µg/mL
same,Solubility in water,[1],poorly soluble
"CCCCCCCCCCCCCCCC1=NC(C)(C)CO1 [Example 5, 2-pentadecyl-4,4-dimethyl-2-oxazoline]",solubility,[1],> 10000 µg/mL
same,Solubility in water,[1],poorly soluble
"CCCCCCCCCCCCCCCC1=NC[C@@H](C)O1 [Example 9, 2-pentadecyl-5(R)-methyl-2-oxazoline]",solubility,[1],> 10000 µg/mL
same,Solubility in water,[1],poorly soluble
"CCCCCCCCCCCCCCCC1=NC(C(=O)OC)CO1 (centres unmarked) [Example 14, 2-pentadecyl-4-methyloxycarbonyl-2-oxazoline]",solubility,[1],> 10000 µg/mL
same,Solubility in water,[1],poorly soluble
"CCCCCCCC/C=C\CCCCCCCC(=O)NCCO [OEA, Oleoylethanolamine, reference compound]",IC50,[2],> 50 µM
